# Measured values taken from patent publication US9131698B2, “Biocidal compositions and methods of use” (Dow Global Technologies LLC, priority 2011, dated 2015).
# How the values were obtained:
# Assay type in all cases: cell-based
# [1] = tested on: Pseudomonas aeruginosa ATCC 10145 and Staphylococcus aureus ATCC 6538; assay: Biocidal efficacy against aerobic bacteria, 24 hours, minimum concentration for 99.9% bacterial kill; settings: 37° C.
# Description: (§1) The synergy indexes reported in the following examples are calculated using the following equation: Synergy Index=Ca/CA+Cb/CB
# (§2) Ca: Concentration of biocide A required to achieve a certain level of bacterial kill when used in combination with B
# (§3) CA: Concentration of biocide A required to achieve a certain level of bacterial kill when used alone
# (§4) Cb: Concentration of biocide B required to achieve a certain level of bacterial kill when used in combination with A
# (§5) CB: Concentration of biocide B required to achieve a certain level of bacterial kill when used alone.
# (§6) A synergy index (SI) of 1 indicates additivity, a synergy index of less than 1 indicates synergy, and a synergy index greater than 1 indicates antagonism.
# (§7) Synergy Index is then calculated.
# [2] = tested on: Desulfovibrio longus ATCC 51456; assay: Biocidal efficacy against SRB, 2 hour treatment time
# Description: as §1, §2, §3, §4, §5, §6
# (§8) Inside an anaerobic chamber (Bactron anaerobic chamber), a deoxygenated sterile salt solution (3.1183 g of NaCl, 1.3082 mg of NaHCO3, 47.70 mg of KCl, 72.00 mg of CaCl2, 54.49 mg of MgSO4, 172.28 mg of Na2SO4, 43.92 mg of Na2CO3 in 1 L water) is inoculated with Desulfovibrio longus ATCC 51456 to a final bacterial concentration of 10^6 to 10^7 CFU/mL.
# [3] = tested on: Biofilms of Desulfovibrio longus ATCC 51456; assay: Biofilm removal, Calgary Biofilm Device, crystal violet staining; settings: 2 hours treatment
# Description: Biofilms of Desulfovibrio longus ATCC 51456 are grown in a Calgary Biofilm Device (Innovotech, Alberta, Canada) at 35° C. and under anaerobic conditions for 72 hours with shaking (125 rpm). Modified Baar's Medium (ATCC #1249 Broth) is used as culture medium and the medium is changed after 48 hrs of incubation. […] After biocide treatment, the pegs are rinsed again with deoxygenated sterile 0.85% NaCl solution and then the total biofilm left on each peg is measured according to the following description. The biofilm is fixed with 99% methanol and, after air drying, the pegs are stained with 2% (w/v) crystal violet and washed with tap water. The pegs are then air dried and the crystal violet bound to the biofilm is extracted with 33% glacial acetic acid. The total remaining biofilm is determined by the optical density (OD) of the extracted solution at 580 nm.
# [4] = tested on: Pseudomonas aeruginosa ATCC 10145 and Staphylococcus aureus ATCC 6538; assay: Biocidal efficacy against aerobic bacteria, 2 hr, minimum concentration for complete bacterial kill; settings: 37° C.
# Description: as §1, §2, §3, §4, §5, §6, §7
# [5] = tested on: Desulfovibrio longus ATCC 51456; assay: Biocidal efficacy against anaerobic bacteria, 24 hours, minimum concentration for 99.999% bacterial reduction; settings: 35° C.
# Description: as §1, §2, §3, §4, §5, §6, §8
# [6] = PHMB part of minimum concentration
# [7] = THPS part of minimum concentration
substance,measurement,setting,value
tetrakis (hydroxymethyl) phosphonium sulfate [THPS],"Concentration (ppm a.i.) for 99.9% bacterial kill, PHMB",[1]; [6],0.0 ppm a.i.
same,"Concentration (ppm a.i.) for 99.9% bacterial kill, THPS",[1]; [7],19.8 ppm a.i.
same,"Concentration (ppm a.i.) for complete SRB kill, PHMB",[2]; [6],0.0 ppm a.i.
same,"Concentration (ppm a.i.) for complete SRB kill, THPS",[2]; [7],22.2 ppm a.i.
same,"Remaining biofilm, OD580 (optical density of biofilm captured crystal violet)",[3]; 50 ppm active,0.59
same,"Remaining biofilm, OD580 (optical density of biofilm captured crystal violet)",[3]; 200 ppm active,1.03
same,"Concentration (ppm a.i.) for aerobic bacteria kill, PHMB",[4]; PHMB part of minimum concentration for complete bacterial kill,0 ppm a.i.
same,"Concentration (ppm a.i.) for aerobic bacteria kill, THPS",[4]; THPS part of minimum concentration for complete bacterial kill,50 ppm a.i.
same,"Concentration (ppm a.i.) for anaerobic bacteria kill, PHMB",[5]; PHMB part of minimum tested concentration for 99.999% bacterial reduction,0.0 ppm a.i.
same,"Concentration (ppm a.i.) for anaerobic bacteria kill, THPS",[5]; THPS part of minimum tested concentration for 99.999% bacterial reduction,8.8 ppm a.i.
